Each structure is given as a SMILES string.

In one experiment the test system is culturable anaerobes. Nature of the experiment: Most probable number of culturable anaerobes in ruminal fluid incubated with chlorate. In kind it is cell-based. The settings on record: 5 mM sodium chlorate, anaerobic, 39° C.
For another experiment, the system named is E. coli. Nature of the experiment: Intraruminal sodium chlorate in cattle: ruminal and fecal E. coli viable cell counts on MacConkey agar. In kind it is in vivo. The settings on record: for Mean ± SD (n = 2) fecal EC concentration / Mean ± SD (n = 2) ruminal EC concentration: treated (30 mM sodium chlorate intraruminally). As for the experimental part: Concentrations of E. coli in the ruminal contents and in feces collected from the test animals were determined by viable cell counts on MacConkey agar plates.

With `[O-][Cl+2]([O-])O` [chlorate, sodium chlorate], the “effect on the most probable number of culturable anaerobes” value in the experiment with culturable anaerobes is given as “little effect”. The “decrease in ruminal E. coli concentration” value with E. coli (fasted and non-fasted, 30 mM sodium chlorate, after 24 hours (compared with 10 hours)) is given as “significantly greater”. Moreover, in the experiment with E. coli (fasted and non-fasted, 30 mM sodium chlorate, by 10 hours after chlorate administration), the “change of ruminal E. coli concentrations from prechlorate levels” value was “decreased only slightly”. For the same compound, the “Mean ± SD (n = 2) fecal EC concentration” value is 5.29 ± 0.24 log base 10 CFU/g in the experiment with E. coli (fasted, 0 h post treatment); 2.33 ± 1.24 log base 10 CFU/g in the experiment on E. coli (fasted, 24 h post treatment); 5.19 ± 1.68 log base 10 CFU/g with E. coli (nonfasted, 0 h post treatment); 2.65 ± 1.91 log base 10 CFU/g with E. coli (nonfasted, 24 h post treatment). Besides, the “Mean ± SD (n = 2) ruminal EC concentration” value in the experiment with E. coli (fasted, 0 h post treatment) was 3.62 ± 2.29 log base 10 CFU/g; in the experiment with E. coli (fasted, 10 h post treatment), 3.27 ± 3.21 log base 10 CFU/g; with E. coli (fasted, 24 h post treatment) it was 2.40 ± 0.20 log base 10 CFU/g; in the experiment with E. coli (nonfasted, 0 h post treatment), 3.66 ± 1.76 log base 10 CFU/g; in the experiment with E. coli (nonfasted, 10 h post treatment) it was 2.22 ± 3.14 log base 10 CFU/g; in the experiment with E. coli (nonfasted, 24 h post treatment) it was 2.28 ± 1.38 log base 10 CFU/g.

Source of the values: patent US6761911B2 (The United States of America as represented by the …, priority 1999, dated 2004).
